Measured values as given in ChEMBL document CHEMBL1201862, “PubChem BioAssay data set” (2004).
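Each compound was tested at five concentrations against cells in 96-well plates for 48 hours. Abbreviation: GI50, concentration required for 50% inhibition of growth.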 Calls of active or inactive are those of the source. Rule as the data show it: active = GI50 up to about 1.1 µM and inactive = higher.

Experiments:
Experiment in all cases: NCI anticancer screen, dose series, 48 h
[1] = tested on: 786-0
[2] = tested on: ACHN
[3] = tested on: CCRF-CEM
[4] = tested on: DU-145
[5] = tested on: IGROV-1
[6] = tested on: K562
[7] = tested on: MCF7
[8] = tested on: MDA-MB-435
[9] = tested on: NCI-H226
[10] = tested on: NCI/ADR-RES
[11] = tested on: RXF 393
[12] = tested on: SF-268
[13] = tested on: SF-539
[14] = tested on: SK-MEL-2
[15] = tested on: SN12C
[16] = tested on: SR
[17] = tested on: TK-10
[18] = tested on: A498
[19] = tested on: HL-60
[20] = tested on: T47D

Compound | GI50 [1] | GI50 [2] | GI50 [3] | GI50 [4] | GI50 [5] | GI50 [6] | GI50 [7] | GI50 [8] | GI50 [9] | GI50 [10] | GI50 [11] | GI50 [12] | GI50 [13] | GI50 [14] | GI50 [15] | GI50 [16] | GI50 [17] | GI50 [18] | GI50 [19] | GI50 [20]
COC(=O)/C=C\COCC1C2CCC(=O)C21 (configuration not stated) | 11.5 µM (inactive) | 11.6 µM (inactive) | 5.66 µM (inactive) | > 25 µM (inactive) | 10.5 µM (inactive) | 8.28 µM (inactive) | 10.3 µM (inactive) | > 25 µM (inactive) | 18.5 µM (inactive) | 17.4 µM (inactive) | 9.62 µM (inactive) | 4.68 µM (inactive) | 7.16 µM (inactive) | > 25 µM (inactive) | > 25 µM (inactive) | 8.3 µM (inactive) | 13 µM (inactive) | – | – | –
COc1ccc([C@H]2CC(=O)NCCCCN2)cc1 | > 100 µM (inactive) | > 100 µM (inactive) | > 100 µM (inactive) | – | > 100 µM (inactive) | > 100 µM (inactive) | – | – | > 100 µM (inactive) | – | > 100 µM (inactive) | > 100 µM (inactive) | > 100 µM (inactive) | > 100 µM (inactive) | > 100 µM (inactive) | > 100 µM (inactive) | > 100 µM (inactive) | > 100 µM (inactive) | – | –
COC(=O)C(C(=O)C(=O)Nc1nc2ccc([N+](=O)[O-])cc2s1)c1nc2ccc(Cl)cc2nc1O (configuration not stated) | > 100 µM (inactive) | > 100 µM (inactive) | > 100 µM (inactive) | – | > 100 µM (inactive) | > 100 µM (inactive) | – | – | > 100 µM (inactive) | – | > 100 µM (inactive) | > 100 µM (inactive) | > 100 µM (inactive) | > 100 µM (inactive) | > 100 µM (inactive) | > 100 µM (inactive) | > 100 µM (inactive) | 21.2 µM (inactive) | > 100 µM (inactive) | –
O=C1Nc2ccccc2C1S(=O)(=O)c1ccccc1 (configuration not stated) | > 100 µM (inactive) | > 100 µM (inactive) | > 100 µM (inactive) | > 100 µM (inactive) | > 100 µM (inactive) | > 100 µM (inactive) | – | > 100 µM (inactive) | > 100 µM (inactive) | > 100 µM (inactive) | > 100 µM (inactive) | > 100 µM (inactive) | – | > 100 µM (inactive) | > 100 µM (inactive) | > 100 µM (inactive) | > 100 µM (inactive) | > 100 µM (inactive) | – | > 100 µM (inactive)
ClC(/N=N/c1ccccc1)=N/Nc1ccccc1 | > 100 µM (inactive) | 34.8 µM (inactive) | > 100 µM (inactive) | – | > 100 µM (inactive) | 38.3 µM (inactive) | – | – | > 100 µM (inactive) | – | > 100 µM (inactive) | 39.2 µM (inactive) | > 100 µM (inactive) | > 100 µM (inactive) | > 100 µM (inactive) | > 100 µM (inactive) | 21.3 µM (inactive) | > 100 µM (inactive) | > 100 µM (inactive) | –
CC(C)(C)OC(=O)N[C@H]1CCN(C2CCCCC2)C1=O | > 100 µM (inactive) | > 100 µM (inactive) | > 100 µM (inactive) | > 100 µM (inactive) | > 100 µM (inactive) | > 100 µM (inactive) | > 100 µM (inactive) | > 100 µM (inactive) | > 100 µM (inactive) | 40.6 µM (inactive) | – | > 100 µM (inactive) | > 100 µM (inactive) | > 100 µM (inactive) | > 100 µM (inactive) | > 10 µM (inactive) | > 100 µM (inactive) | > 100 µM (inactive) | > 100 µM (inactive) | –
CCCCCCCCOCC1S(=O)(=O)OCCOS1(=O)=O | > 100 µM (inactive) | > 100 µM (inactive) | > 100 µM (inactive) | > 100 µM (inactive) | > 100 µM (inactive) | > 100 µM (inactive) | – | > 100 µM (inactive) | > 100 µM (inactive) | > 100 µM (inactive) | > 100 µM (inactive) | > 100 µM (inactive) | > 100 µM (inactive) | > 100 µM (inactive) | > 100 µM (inactive) | 40.4 µM (inactive) | > 100 µM (inactive) | > 100 µM (inactive) | > 100 µM (inactive) | > 100 µM (inactive)
O=C(O[C@@H](/C=C/c1ccccc1)P1(=O)N(Cc2ccccc2)[C@@H]2CCCC[C@H]2N1Cc1ccccc1)c1ccccc1 | 3.89 µM (inactive) | 3.95 µM (inactive) | 2.31 µM (inactive) | – | 2.79 µM (inactive) | 3.25 µM (inactive) | 3.59 µM (inactive) | 3.12 µM (inactive) | 2.58 µM (inactive) | 3.66 µM (inactive) | – | 5.06 µM (inactive) | 4.68 µM (inactive) | 2.38 µM (inactive) | 3.18 µM (inactive) | 2.68 µM (inactive) | > 100 µM (inactive) | 5.62 µM (inactive) | 2.94 µM (inactive) | 0.0984 µM (active)
COc1cccc(CCCNC(=O)Cc2cc(OC)c(OC)cc2CO)c1 | > 100 µM (inactive) | > 100 µM (inactive) | > 100 µM (inactive) | > 100 µM (inactive) | > 100 µM (inactive) | > 100 µM (inactive) | – | > 100 µM (inactive) | > 100 µM (inactive) | > 100 µM (inactive) | – | – | – | > 100 µM (inactive) | > 100 µM (inactive) | > 100 µM (inactive) | > 100 µM (inactive) | > 100 µM (inactive) | > 100 µM (inactive) | 39.1 µM (inactive)
CC1=C(C)SC(=C2Sc3[n-]c(=O)[nH]c(=O)c3S2)S1.CCCC[N+](CCCC)(CCCC)CCCC | > 100 µM (inactive) | > 100 µM (inactive) | 40.4 µM (inactive) | > 100 µM (inactive) | > 100 µM (inactive) | 49.4 µM (inactive) | 42.5 µM (inactive) | 31.6 µM (inactive) | > 100 µM (inactive) | 95.9 µM (inactive) | > 100 µM (inactive) | > 100 µM (inactive) | 44.5 µM (inactive) | – | > 100 µM (inactive) | 35.9 µM (inactive) | > 100 µM (inactive) | > 100 µM (inactive) | < 0.01 µM (active) | –
CC(=O)OCC1=CC2CCC3C(C)(CCC[C@]3(C)COC(C)=O)C23CC[C@H]1C3 (some centres not stated) | 57.3 µM (inactive) | 73.1 µM (inactive) | 27.9 µM (inactive) | – | 99.3 µM (inactive) | 27.2 µM (inactive) | – | – | 68.1 µM (inactive) | – | 46.5 µM (inactive) | > 100 µM (inactive) | 40.3 µM (inactive) | 33.8 µM (inactive) | 45.2 µM (inactive) | 27.5 µM (inactive) | > 100 µM (inactive) | > 100 µM (inactive) | 26 µM (inactive) | –
O=C1C=CC(=O)c2c1cc1ccccc1c2O | 7.67 µM (inactive) | 2.84 µM (inactive) | 0.391 µM (active) | 14.6 µM (inactive) | 5.28 µM (inactive) | 0.767 µM (active) | – | 6.37 µM (inactive) | 20.1 µM (inactive) | 6.18 µM (inactive) | 2.11 µM (inactive) | 8.24 µM (inactive) | 11.6 µM (inactive) | 14.4 µM (inactive) | 12.3 µM (inactive) | 0.428 µM (active) | 4.24 µM (inactive) | 13.5 µM (inactive) | 0.628 µM (active) | 1.61 µM (inactive)
COc1cc(OC)c2c(C)cc(=O)oc2c1 | 52.6 µM (inactive) | 36.7 µM (inactive) | > 100 µM (inactive) | 52.7 µM (inactive) | 35.2 µM (inactive) | 45 µM (inactive) | 85.9 µM (inactive) | 88.9 µM (inactive) | 41.5 µM (inactive) | 63.8 µM (inactive) | – | 47.9 µM (inactive) | 34.8 µM (inactive) | > 100 µM (inactive) | 72.6 µM (inactive) | 45.1 µM (inactive) | 66.4 µM (inactive) | 20.6 µM (inactive) | – | –
CCN(CC)CCn1c2ccccc2c(=O)c2c(OC)ccc(OC)c21 | 69.5 µM (inactive) | 47.9 µM (inactive) | 46.6 µM (inactive) | – | > 10 µM (inactive) | 35.3 µM (inactive) | – | – | 60.3 µM (inactive) | – | 32.4 µM (inactive) | 55.8 µM (inactive) | 39.1 µM (inactive) | > 100 µM (inactive) | 52.4 µM (inactive) | 32.2 µM (inactive) | – | 97.5 µM (inactive) | 84.3 µM (inactive) | –
O=C1CCCCC/C1=C\c1cccc(Cl)c1 | 41.1 µM (inactive) | 28.2 µM (inactive) | 4.06 µM (inactive) | > 100 µM (inactive) | 46.2 µM (inactive) | – | – | 31 µM (inactive) | 34.4 µM (inactive) | – | – | 22 µM (inactive) | – | 46.5 µM (inactive) | 93.8 µM (inactive) | 20.4 µM (inactive) | – | > 100 µM (inactive) | – | > 100 µM (inactive)
Clc1ccc(/N=C/c2cc3cc(Br)ccc3nc2Cl)cc1 | > 50 µM (inactive) | – | 9.08 µM (inactive) | > 50 µM (inactive) | 17.8 µM (inactive) | 4.34 µM (inactive) | – | 8.71 µM (inactive) | > 50 µM (inactive) | 45.1 µM (inactive) | > 50 µM (inactive) | 17 µM (inactive) | 21.4 µM (inactive) | 10.8 µM (inactive) | > 50 µM (inactive) | 10.1 µM (inactive) | – | – | 9.82 µM (inactive) | > 50 µM (inactive)
Cc1nn(C(=O)Cc2ccccc2)c2c1C(c1ccc(O)cc1O)SC(=N)N2 (configuration not stated) | > 100 µM (inactive) | > 100 µM (inactive) | > 100 µM (inactive) | > 100 µM (inactive) | > 100 µM (inactive) | – | > 100 µM (inactive) | > 100 µM (inactive) | > 100 µM (inactive) | – | – | > 100 µM (inactive) | > 100 µM (inactive) | – | > 100 µM (inactive) | > 100 µM (inactive) | > 100 µM (inactive) | > 100 µM (inactive) | > 100 µM (inactive) | > 100 µM (inactive)
